According to ChEMBL document CHEMBL4507319 (2021):

What was measured:
Settings in all cases: Compound concentration 1000.0 nM
[1] = target: Wee1-like protein kinase (Homo sapiens) (UniProt P30291)
[2] = target: T1, Protein kinase C epsilon type (Homo sapiens) (UniProt Q02156)
T1 sequence (whole entry): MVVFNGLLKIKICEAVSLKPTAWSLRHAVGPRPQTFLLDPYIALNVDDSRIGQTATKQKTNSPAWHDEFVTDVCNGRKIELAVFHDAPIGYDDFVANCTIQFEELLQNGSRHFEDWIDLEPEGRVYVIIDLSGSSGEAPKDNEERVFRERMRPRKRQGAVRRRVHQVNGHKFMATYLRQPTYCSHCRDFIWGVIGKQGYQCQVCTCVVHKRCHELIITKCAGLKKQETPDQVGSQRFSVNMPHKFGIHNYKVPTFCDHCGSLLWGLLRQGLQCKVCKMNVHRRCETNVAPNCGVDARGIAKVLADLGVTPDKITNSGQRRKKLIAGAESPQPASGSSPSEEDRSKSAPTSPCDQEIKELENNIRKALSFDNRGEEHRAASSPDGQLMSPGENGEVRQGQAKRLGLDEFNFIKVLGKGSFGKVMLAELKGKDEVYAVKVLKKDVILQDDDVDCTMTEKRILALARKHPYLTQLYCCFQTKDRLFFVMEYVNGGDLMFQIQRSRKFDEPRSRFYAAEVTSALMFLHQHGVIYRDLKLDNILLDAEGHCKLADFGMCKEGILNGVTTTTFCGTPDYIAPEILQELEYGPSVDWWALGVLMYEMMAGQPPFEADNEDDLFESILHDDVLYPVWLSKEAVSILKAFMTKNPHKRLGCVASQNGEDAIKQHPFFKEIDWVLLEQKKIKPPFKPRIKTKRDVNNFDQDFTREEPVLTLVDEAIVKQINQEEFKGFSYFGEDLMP

[3] = target: cAMP-dependent protein kinase catalytic subunit alpha (Homo sapiens) (UniProt P17612)
[4] = target: Calcium/calmodulin-dependent protein kinase type II subunit delta (Homo sapiens) (UniProt Q13557)
[5] = target: T2, Serine/threonine-protein kinase tousled-like 1 (Homo sapiens) (UniProt Q9UKI8)
T2 sequence (whole entry): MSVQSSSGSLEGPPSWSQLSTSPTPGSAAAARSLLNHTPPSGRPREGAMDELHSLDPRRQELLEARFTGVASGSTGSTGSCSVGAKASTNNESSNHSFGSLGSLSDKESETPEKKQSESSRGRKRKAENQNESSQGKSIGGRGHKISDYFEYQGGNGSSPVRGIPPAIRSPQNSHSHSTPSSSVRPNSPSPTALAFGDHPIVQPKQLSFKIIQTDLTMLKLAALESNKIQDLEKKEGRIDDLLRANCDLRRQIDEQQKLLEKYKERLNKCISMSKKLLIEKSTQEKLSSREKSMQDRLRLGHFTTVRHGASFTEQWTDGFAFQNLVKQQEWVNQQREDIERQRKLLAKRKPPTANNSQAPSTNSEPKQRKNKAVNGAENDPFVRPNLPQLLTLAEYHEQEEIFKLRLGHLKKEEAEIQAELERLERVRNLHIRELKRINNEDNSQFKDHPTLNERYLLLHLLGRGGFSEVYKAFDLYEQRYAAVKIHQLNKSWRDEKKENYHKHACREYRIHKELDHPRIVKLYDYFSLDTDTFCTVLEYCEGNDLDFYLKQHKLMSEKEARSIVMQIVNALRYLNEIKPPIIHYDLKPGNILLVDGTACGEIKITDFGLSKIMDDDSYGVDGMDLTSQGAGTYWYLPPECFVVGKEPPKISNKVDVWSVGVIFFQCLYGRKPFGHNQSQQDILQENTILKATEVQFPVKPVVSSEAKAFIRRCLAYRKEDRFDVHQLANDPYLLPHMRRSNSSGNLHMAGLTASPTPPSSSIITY

[6] = tested on: Epidermal growth factor receptor (Homo sapiens), P00533 [UNDEFINED MUTATION]
[7] = target: Angiopoietin-1 receptor (Homo sapiens) (UniProt Q02763)
[8] = target: Cyclin-dependent kinase 18 (Homo sapiens) (UniProt Q07002)
[9] = target: Activin receptor type-1-like (Homo sapiens) (UniProt P37023)
[10] = tested on: Phosphatidylinositol 4,5-bisphosphate 3-kinase catalytic subunit alpha isoform (Homo sapiens), P42336 [E545A]
[11] = target: T3, Ephrin type-B receptor 3 (Homo sapiens) (UniProt P54753)
T3 sequence (whole entry): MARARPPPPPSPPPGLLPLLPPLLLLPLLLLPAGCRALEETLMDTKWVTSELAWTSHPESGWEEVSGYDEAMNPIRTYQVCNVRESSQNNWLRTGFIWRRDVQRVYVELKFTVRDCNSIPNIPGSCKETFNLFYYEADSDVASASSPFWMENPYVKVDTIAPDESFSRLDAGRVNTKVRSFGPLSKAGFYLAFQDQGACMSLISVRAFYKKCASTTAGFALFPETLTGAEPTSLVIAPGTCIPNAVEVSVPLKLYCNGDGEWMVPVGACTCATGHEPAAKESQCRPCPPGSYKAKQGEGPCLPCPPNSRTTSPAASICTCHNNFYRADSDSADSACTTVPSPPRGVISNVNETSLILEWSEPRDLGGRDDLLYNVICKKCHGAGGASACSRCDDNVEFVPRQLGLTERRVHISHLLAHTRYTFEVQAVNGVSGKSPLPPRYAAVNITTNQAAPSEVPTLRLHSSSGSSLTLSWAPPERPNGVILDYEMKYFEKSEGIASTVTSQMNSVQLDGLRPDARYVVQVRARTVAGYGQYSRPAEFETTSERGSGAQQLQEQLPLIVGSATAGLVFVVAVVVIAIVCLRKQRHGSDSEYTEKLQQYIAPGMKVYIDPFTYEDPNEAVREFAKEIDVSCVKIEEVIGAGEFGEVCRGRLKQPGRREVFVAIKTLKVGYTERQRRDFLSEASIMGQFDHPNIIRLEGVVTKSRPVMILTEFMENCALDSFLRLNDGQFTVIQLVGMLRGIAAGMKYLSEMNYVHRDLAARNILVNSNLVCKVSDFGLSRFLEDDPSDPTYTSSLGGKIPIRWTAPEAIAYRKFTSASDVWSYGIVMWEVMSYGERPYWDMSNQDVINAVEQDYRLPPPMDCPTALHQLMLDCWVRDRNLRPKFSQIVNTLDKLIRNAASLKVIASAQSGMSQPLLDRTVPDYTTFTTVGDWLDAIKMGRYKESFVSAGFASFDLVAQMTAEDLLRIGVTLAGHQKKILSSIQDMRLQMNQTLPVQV

Phosphatidylinositol 4,5-bisphosphate 3-kinase catalytic subunit alpha isoform (Homo sapiens), P42336 [E545A], sequence (P42336 whole entry E545A, canonical isoform): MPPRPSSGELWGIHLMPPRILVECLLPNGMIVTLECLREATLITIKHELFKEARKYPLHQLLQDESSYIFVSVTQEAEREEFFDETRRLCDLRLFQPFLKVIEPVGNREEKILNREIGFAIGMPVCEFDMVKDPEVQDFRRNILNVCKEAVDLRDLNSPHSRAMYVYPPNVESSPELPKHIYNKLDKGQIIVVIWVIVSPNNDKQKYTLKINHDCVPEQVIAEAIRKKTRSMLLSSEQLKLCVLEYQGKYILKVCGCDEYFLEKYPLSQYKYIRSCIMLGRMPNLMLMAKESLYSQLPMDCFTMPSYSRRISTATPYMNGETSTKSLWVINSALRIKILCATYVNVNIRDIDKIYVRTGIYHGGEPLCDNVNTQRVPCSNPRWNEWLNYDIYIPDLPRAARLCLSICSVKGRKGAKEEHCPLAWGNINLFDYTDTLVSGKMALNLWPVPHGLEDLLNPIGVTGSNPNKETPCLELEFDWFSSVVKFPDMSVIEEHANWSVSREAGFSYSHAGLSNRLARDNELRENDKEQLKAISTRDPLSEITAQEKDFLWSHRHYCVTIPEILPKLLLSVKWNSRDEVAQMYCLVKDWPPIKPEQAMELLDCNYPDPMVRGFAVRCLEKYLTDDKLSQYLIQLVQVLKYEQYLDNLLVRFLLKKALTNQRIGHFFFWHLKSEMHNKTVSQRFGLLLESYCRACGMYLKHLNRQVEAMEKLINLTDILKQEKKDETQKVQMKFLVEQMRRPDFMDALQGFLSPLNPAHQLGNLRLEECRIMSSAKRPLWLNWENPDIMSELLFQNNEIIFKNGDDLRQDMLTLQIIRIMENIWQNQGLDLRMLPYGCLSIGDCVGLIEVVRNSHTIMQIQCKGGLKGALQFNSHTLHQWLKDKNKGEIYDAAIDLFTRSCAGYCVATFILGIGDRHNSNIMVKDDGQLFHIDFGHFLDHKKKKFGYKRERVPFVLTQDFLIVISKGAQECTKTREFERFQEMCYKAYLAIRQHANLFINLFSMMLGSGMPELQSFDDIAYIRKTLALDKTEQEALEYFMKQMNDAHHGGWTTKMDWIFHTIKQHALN
Angiopoietin-1 receptor (Homo sapiens), sequence (Q02763 whole entry): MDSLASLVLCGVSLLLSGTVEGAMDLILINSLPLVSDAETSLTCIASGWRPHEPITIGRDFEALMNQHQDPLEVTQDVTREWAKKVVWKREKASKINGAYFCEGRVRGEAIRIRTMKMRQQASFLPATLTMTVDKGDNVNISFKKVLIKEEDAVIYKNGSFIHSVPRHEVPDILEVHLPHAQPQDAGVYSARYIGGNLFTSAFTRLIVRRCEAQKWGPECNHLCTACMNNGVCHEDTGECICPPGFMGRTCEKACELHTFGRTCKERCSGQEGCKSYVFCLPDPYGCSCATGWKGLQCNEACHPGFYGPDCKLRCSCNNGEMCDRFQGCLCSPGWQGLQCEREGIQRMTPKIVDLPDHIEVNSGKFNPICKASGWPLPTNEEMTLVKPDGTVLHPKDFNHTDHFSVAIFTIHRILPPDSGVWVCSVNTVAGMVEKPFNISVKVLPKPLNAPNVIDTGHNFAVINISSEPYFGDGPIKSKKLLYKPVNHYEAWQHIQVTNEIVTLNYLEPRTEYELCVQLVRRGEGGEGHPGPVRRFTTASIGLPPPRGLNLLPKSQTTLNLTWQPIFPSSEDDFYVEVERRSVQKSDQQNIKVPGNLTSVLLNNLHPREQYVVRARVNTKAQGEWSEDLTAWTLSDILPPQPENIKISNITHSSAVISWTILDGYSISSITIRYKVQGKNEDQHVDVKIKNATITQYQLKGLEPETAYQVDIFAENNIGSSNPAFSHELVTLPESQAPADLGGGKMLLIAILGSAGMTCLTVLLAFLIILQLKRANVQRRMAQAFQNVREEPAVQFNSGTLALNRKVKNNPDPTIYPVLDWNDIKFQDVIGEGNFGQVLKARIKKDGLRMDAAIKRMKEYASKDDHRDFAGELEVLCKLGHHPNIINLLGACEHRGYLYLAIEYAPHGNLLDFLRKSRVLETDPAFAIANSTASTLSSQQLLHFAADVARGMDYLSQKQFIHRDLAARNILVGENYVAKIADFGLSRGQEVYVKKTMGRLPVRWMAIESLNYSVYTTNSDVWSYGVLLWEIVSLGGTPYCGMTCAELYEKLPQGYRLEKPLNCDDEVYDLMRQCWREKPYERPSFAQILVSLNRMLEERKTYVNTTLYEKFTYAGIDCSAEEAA
Epidermal growth factor receptor (Homo sapiens), P00533 [UNDEFINED MUTATION], sequence (P00533 whole entry, looked up, change not shown): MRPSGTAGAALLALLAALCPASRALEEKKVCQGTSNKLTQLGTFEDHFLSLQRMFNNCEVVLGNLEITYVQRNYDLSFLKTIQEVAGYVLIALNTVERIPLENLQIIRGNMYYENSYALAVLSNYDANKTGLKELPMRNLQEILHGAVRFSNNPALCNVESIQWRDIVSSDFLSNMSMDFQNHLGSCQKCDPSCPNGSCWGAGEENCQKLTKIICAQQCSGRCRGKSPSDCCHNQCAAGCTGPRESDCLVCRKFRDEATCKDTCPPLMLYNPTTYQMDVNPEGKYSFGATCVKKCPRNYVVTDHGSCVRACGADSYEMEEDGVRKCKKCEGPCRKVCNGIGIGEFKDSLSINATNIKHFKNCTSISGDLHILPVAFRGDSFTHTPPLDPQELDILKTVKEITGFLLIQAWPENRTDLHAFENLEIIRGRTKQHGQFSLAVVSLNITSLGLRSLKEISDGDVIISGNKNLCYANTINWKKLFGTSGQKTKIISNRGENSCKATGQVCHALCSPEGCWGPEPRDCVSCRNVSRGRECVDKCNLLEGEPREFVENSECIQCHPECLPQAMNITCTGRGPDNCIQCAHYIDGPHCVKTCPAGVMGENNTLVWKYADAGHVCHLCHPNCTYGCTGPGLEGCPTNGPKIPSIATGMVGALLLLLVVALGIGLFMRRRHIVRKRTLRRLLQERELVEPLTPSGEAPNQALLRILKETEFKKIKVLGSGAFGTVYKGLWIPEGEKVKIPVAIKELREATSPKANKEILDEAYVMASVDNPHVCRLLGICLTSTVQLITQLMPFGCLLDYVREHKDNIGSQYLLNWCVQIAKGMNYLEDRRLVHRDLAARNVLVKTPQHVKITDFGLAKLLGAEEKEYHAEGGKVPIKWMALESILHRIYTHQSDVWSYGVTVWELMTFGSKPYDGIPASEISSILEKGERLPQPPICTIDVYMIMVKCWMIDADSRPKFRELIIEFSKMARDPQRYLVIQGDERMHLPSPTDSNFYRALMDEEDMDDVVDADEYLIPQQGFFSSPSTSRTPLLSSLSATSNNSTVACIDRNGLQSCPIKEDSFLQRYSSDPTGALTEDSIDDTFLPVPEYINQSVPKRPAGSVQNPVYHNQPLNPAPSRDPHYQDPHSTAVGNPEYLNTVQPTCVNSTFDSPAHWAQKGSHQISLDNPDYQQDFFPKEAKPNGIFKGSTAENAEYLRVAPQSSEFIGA
Activin receptor type-1-like (Homo sapiens), sequence (P37023 whole entry, canonical isoform): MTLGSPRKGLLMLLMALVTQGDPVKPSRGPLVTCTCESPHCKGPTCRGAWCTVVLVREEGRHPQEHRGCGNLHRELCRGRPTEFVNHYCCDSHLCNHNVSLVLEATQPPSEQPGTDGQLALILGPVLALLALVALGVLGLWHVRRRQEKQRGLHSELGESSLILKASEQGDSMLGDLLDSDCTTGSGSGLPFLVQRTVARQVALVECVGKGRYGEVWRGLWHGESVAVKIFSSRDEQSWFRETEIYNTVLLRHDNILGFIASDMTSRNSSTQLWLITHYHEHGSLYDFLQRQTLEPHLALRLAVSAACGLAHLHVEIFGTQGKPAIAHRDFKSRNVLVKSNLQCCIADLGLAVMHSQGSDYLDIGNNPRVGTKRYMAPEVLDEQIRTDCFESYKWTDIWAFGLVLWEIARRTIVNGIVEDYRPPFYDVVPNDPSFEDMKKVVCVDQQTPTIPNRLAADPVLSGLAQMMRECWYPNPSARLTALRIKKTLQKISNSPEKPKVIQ
Cyclin-dependent kinase 18 (Homo sapiens), sequence (Q07002 whole entry): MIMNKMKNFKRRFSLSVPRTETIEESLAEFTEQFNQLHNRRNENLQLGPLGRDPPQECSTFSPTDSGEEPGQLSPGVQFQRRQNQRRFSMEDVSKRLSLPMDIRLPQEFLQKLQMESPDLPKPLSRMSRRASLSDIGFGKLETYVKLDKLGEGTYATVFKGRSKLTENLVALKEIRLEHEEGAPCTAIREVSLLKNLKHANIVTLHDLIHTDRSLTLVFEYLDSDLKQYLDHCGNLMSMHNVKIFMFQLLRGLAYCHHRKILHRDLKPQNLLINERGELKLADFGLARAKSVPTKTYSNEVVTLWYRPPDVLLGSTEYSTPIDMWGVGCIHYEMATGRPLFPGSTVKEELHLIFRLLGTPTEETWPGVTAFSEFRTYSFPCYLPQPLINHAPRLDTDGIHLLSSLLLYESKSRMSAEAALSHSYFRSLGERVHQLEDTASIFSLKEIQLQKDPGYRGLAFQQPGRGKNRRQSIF
Wee1-like protein kinase (Homo sapiens), sequence (P30291 whole entry, looked up): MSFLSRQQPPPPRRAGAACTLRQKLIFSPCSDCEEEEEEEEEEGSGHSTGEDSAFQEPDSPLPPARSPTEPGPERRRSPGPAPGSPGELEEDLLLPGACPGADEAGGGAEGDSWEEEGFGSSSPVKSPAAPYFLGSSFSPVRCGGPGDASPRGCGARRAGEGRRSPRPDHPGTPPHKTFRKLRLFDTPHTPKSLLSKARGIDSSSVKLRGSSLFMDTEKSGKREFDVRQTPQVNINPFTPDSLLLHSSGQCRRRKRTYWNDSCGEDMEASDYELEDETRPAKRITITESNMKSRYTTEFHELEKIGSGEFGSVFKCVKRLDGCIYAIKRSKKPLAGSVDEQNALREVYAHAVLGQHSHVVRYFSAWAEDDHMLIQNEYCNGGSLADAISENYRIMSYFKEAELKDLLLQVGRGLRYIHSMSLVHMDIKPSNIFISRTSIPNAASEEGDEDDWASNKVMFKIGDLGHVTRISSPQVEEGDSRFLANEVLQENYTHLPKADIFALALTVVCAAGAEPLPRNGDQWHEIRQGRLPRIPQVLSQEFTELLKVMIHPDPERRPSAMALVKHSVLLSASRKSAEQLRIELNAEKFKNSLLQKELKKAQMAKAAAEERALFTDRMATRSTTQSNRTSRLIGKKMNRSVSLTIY

CC1=C(C#N)C(c2ccc3c(c2)c(NC(=O)c2ccccc2C)nn3C)C(C#N)=C(C)N1 [BAY-974]
residual activity [1]: 100% | residual activity [2]: 85% | residual activity [3]: 77% | residual activity [4]: 100% | residual activity [5]: 88% | residual activity [6]: 93% | residual activity [7]: 98% | residual activity [8]: 100% | residual activity [9]: 97% | residual activity [10]: 71% | residual activity [11]: 99%

CCc1ccccc1C(=O)Nc1n[nH]c2c(C)c(F)c(C3C(C#N)=C(C)N(C)C(C)=C3C#N)cc12 [BAY-3827]
residual activity [1]: 100% | residual activity [2]: 19% | residual activity [3]: 89% | residual activity [4]: 78% | residual activity [5]: 100% | residual activity [6]: 100% | residual activity [7]: 91% | residual activity [8]: 75% | residual activity [9]: 75% | residual activity [10]: 100% | residual activity [11]: 57%
